The results in this text go back to ChEMBL document CHEMBL1800061 (J Med Chem, 2010).

A short description of experiment [1]: Antiproliferative activity against human NCI60 cells assessed as lethal effect after 72 hrs by sulforhodamine B assay. Conditions: NCI60, 72 h, read-out: LC50 (the source's name). The format is functional. A general note: In SRB staining, fixed cells bind dye roughly in proportion to their protein.
Experiment [2] deals with Ephrin type-A receptor 2 (Homo sapiens) (UniProt P29317). Briefly: Inhibition of EPH A2 assessed as residual enzyme activity at 10 uM.
Chain of Ephrin type-A receptor 2 (Homo sapiens) (P29317 whole entry, looked up): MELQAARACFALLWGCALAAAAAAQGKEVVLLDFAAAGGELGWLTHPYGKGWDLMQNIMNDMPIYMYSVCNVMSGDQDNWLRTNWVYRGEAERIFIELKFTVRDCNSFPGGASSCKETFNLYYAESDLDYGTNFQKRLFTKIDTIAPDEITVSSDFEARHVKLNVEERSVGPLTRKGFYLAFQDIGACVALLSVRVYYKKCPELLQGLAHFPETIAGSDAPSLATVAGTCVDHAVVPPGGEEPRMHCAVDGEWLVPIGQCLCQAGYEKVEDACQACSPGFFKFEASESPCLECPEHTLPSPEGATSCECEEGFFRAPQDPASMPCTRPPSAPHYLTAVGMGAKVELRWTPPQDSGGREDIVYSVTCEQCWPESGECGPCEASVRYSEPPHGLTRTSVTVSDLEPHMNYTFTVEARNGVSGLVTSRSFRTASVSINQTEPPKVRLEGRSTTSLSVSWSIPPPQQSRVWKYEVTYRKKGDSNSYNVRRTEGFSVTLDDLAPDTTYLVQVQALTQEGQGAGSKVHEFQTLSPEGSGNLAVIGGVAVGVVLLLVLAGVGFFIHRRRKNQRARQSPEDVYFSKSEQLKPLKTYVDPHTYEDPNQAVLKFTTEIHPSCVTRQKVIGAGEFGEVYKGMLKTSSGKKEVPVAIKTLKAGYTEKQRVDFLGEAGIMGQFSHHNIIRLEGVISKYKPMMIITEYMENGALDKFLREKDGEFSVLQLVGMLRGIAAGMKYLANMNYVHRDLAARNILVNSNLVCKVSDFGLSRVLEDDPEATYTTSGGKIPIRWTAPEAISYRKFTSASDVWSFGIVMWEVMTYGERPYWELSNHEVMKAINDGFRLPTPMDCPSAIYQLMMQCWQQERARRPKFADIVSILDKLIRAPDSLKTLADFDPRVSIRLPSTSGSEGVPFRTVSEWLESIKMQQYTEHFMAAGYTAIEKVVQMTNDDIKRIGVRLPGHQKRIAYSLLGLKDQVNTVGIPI

SMILES strings stand for the structures. A value given as a limit tells only on which side of the number the result lay.

On to `CC(C)c1cnn2c(NCc3ccccc3)cc(N[C@@H](CO)[C@H](O)CO)nc12`, for which the CC50 in experiment [1] was greater than 100 µM. Also, the Activity in experiment [2] was found to be 116%.
